Results reported in patent US20080274061A1, “Method for Treating a Restless Limb Disorder” (priority 2007, published 2008).
Where a name gives a salt, the structure may show the parent alone. Read-outs that look alike come from different tables or passages of the source.

Experiments:
[1] = Maximum solubility in aqueous cyclodextrin solution at room temperature, isocratic HPLC; format: physicochemical; settings: aqueous solution and aqueous solutions containing α- or β-cyclodextrin
Method: The concentration was determined by isocratic HPLC analysis. HPLC column LiChroCART 75×4 mm, Superspher 60 RP-select B 5 μm (Merck), column temperature: 30° C., mobile phase:water/acetonitrile/methanesulfonic acid (65/35/0.05 v/v/v), flow rate: 2 ml/min, injection volume: 50 μl, detection at 220 nm, retention time approx. 1.5 min. The concentration was determined by use of an external reference solution having known concentration.

[2] = Comparative storage test of aqueous rotigotine HCl solution with/without α-cyclodextrin; format: physicochemical; settings: storage at 60° C. for 8 weeks, solution of 1.6 mg/ml with α-cyclodextrin
[3] = test system: subjects with idiopathic RLS; test: Clinical trial: subject-rated severity of RLS sensory symptoms during Suggested Immobilization Tests; format: in vivo, human; settings: for onset of action after administration: doses of 124 μg and 247 μg, intranasal; for maximum mean reduction from baseline in severity scores: single delivery, 0-10 scale
Method: This example relates to a randomized, double-blind, placebo-controlled parallel-group proof-of-concept trial which assessed the efficacy, safety and tolerability of ascending doses of rotigotine nasal spray for the treatment of acute symptoms of RLS in subjects with idiopathic RLS. This was evaluated by subject rating of severity of symptoms (sensory symptoms) on a numeric symptoms severity scale and by the Periodic Limb Movement (PLM) index (motor symptoms) as measured by actigraphy following triggering of symptoms by immobilization. […] Subjects randomized to the “placebo group” received a single delivery of matching placebo nasal spray on each treatment day. […] It has been shown that immobilization results in worsening of both motor and sensory components of RLS symptoms. […] On each treatment day, the trial medication was administered 30 minutes after the start of the pre-dose SIT-0 or as soon as the subject's severity score reaches 5 on the numeric symptom severity scale, whichever is sooner. The last scoring prior to dosing is defined as the baseline value for each individual subject. • 1. […] PLM during Wakefulness Index (PLMWI) for each SIT and for specified time sections of each SIT (PLM during awake epochs/h, motor symptoms) was evaluated based on PLM measurements by means of actigraphy, recorded over the entire duration of the SIT period (pre dose and post dose SIT-0 to SIT-6, approximately 4.5 hours). Severity of symptoms in the legs was assessed by subject ratings using a numeric symptoms severity scale at the start of each pre-dose and post-dose SIT-0 to SIT-6 and every 5 minutes during each SIT. Scores on the scale range from 0 (‘no symptoms’) to 10 (‘very severe’).

[4] = buccal, nasal or rectal administration to rats as HCl salt, compared with oral dosing; cited from earlier work
[5] = test system: subjects with idiopathic RLS; test: Clinical trial: PLM during Wakefulness Index (PLMWI) by actigraphy during SITs; format: in vivo, human; settings: highest dose (247 μg) nasal spray
Method: This example relates to a randomized, double-blind, placebo-controlled parallel-group proof-of-concept trial which assessed the efficacy, safety and tolerability of ascending doses of rotigotine nasal spray for the treatment of acute symptoms of RLS in subjects with idiopathic RLS. This was evaluated by subject rating of severity of symptoms (sensory symptoms) on a numeric symptoms severity scale and by the Periodic Limb Movement (PLM) index (motor symptoms) as measured by actigraphy following triggering of symptoms by immobilization. […] Subjects randomized to the “placebo group” received a single delivery of matching placebo nasal spray on each treatment day. • 1. […] PLM during Wakefulness Index (PLMWI) for each SIT and for specified time sections of each SIT (PLM during awake epochs/h, motor symptoms) was evaluated based on PLM measurements by means of actigraphy, recorded over the entire duration of the SIT period (pre dose and post dose SIT-0 to SIT-6, approximately 4.5 hours). RLS is usually associated with involuntary PLM occurring in wakefulness (PMLW) and sleep (PMLS) in 80-85% of RLS patients. […] A central reader was used to standardize PLM evaluation of the actigraphy measurements performed during the SIT period. […]

[6] = effect of glycerol, in vitro permeation assays; cited from earlier work
[7] = orally (perorally) administered, first-pass metabolism in the liver; cited from earlier work

Row | solubility (in words) [1] | decrease in the rotigotine concentration [2] | SMILES | onset of action after administration [3] | bioavailability (in words) [4] | decrease from baseline in the PLMWI [5] | absorption through bovine nasal mucosa (in words) [6] | bioavailability (in words) [7] | maximum mean reduction from baseline in severity scores ([3]; 62 μg nasal spray) | maximum mean reduction from baseline in severity scores ([3]; 124 μg nasal spray) | maximum mean reduction from baseline in severity scores ([3]; 247 μg nasal spray) | decrease in the mean severity scores ([3]; doses of 124 μg and 247 μg nasal spray, SIT-1 through SIT-6, 0-10 scale)
1 | practically insoluble | – | CCCN(CCc1cccs1)[C@H]1CCc2c(O)cccc2C1 [Rotigotine base] | – | – | – | – | – | – | – | – | –
2 | – | -0.07 mg/mL | CCCN(CCc1cccs1)[C@H]1CCc2c(O)cccc2C1 [Rotigotine HCl] | 10 min | – | – | – | – | – | – | – | –
3 | – | – | CCCN(CCc1cccs1)[C@H]1CCc2c(O)cccc2C1 [rotigotine, (−)-5,6,7,8-tetrahydro-6-[propyl[2-(2-thienyl)ethyl]amino]-1-naphthol] | 10 min | improved bioavailability | approximately 10 points | enhance absorption | close to zero | −0.8 points | −2.0 points | −2.3 points | approximately 2 points
